Assay results from PubChem BioAssay (NCI).
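1) Cells in 96-well plates. 2) Compound, 48 h, 5 concentrations. 3) Linear interpolation between surrounding doses. 4) Unreached endpoint = highest concentration. TGI denotes the concentration required for complete inhibition of growth.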

What was measured:
Test in all cases: NCI tumour cell line growth inhibition, 48 h
DU-145 prostate = system: DU-145 prostate
HOP-62 NSCLC = system: HOP-62 NSCLC
HT29 colon = system: HT29 colon
K-562 leukemia = system: K-562 leukemia
MALME-3M melanoma = system: MALME-3M melanoma
NCI-H522 lung = system: NCI-H522 lung
SF-268 CNS = system: SF-268 CNS
SF-295 CNS = system: SF-295 CNS
SK-MEL-28 melanoma = system: SK-MEL-28 melanoma
SK-MEL-5 melanoma = system: SK-MEL-5 melanoma
UACC-257 melanoma = system: UACC-257 melanoma
SNB-19 CNS = system: SNB-19 CNS

Structure (SMILES)	TGI (DU-145 prostate)	TGI (HOP-62 NSCLC)	TGI (HT29 colon)	TGI (K-562 leukemia)	TGI (MALME-3M melanoma)	TGI (NCI-H522 lung)	TGI (SF-268 CNS)	TGI (SF-295 CNS)	TGI (SK-MEL-28 melanoma)	TGI (SK-MEL-5 melanoma)	TGI (UACC-257 melanoma)	TGI (SNB-19 CNS)
CC(C)(C)OC(=O)N1C(C2=COc3ccccc3O2)=COc2cccnc21	2.76 µM	3.5 µM	5.8 µM	5.33 µM	2.76 µM	3.49 µM	3.93 µM	3.99 µM	3.47 µM	3.17 µM	3.92 µM	
O=c1oc2c(ccc3occc32)c(N2CCCCC2)c1-c1ccccc1		> 100 µM	> 100 µM	> 100 µM	> 100 µM	> 100 µM	> 100 µM	> 100 µM	> 100 µM	> 100 µM		> 100 µM
CC(Br)C(=O)c1ccc2cc(Br)c3ccccc3c2c1 (configuration not stated)	31.3 µM	32.4 µM	31.8 µM	42.9 µM	28.8 µM	16.7 µM	32.4 µM	31.4 µM	34 µM	27.3 µM	31.5 µM	32.7 µM
COc1cc(S(=O)(=O)N/N=C/C=C/c2ccccc2)c(OC)cc1NC(C)=O	> 100 µM	> 100 µM	> 100 µM		> 100 µM	> 100 µM	> 100 µM	> 100 µM	> 100 µM	33.3 µM	> 100 µM	> 100 µM
NCCCCN	> 100 µM	> 100 µM	> 100 µM	> 100 µM	> 100 µM	> 100 µM	> 100 µM	> 100 µM	> 100 µM	> 100 µM	> 100 µM	> 100 µM
NC(CCc1ccccc1)(C(=O)O)c1ccccc1 (configuration not stated)	> 100 µM	> 100 µM	> 100 µM	> 100 µM	> 100 µM	> 100 µM	> 100 µM	> 100 µM	> 100 µM	> 100 µM	> 100 µM	> 100 µM
CCOC(=O)c1c(Nc2ccccc2)sc2cccnc12	> 69.7 µM	> 81 µM	49.6 µM	82.8 µM	53.4 µM	> 58.4 µM	64.1 µM	49.9 µM	63 µM	24.3 µM	51.1 µM	> 86.4 µM
CCOC(=O)C(Cc1ccc(OC(=O)c2ccc(OC)cc2OC)cc1)NC(=O)C(F)(F)F (configuration not stated)	34.4 µM	44.9 µM	47.1 µM	> 100 µM	59.9 µM	40.9 µM	> 100 µM	91.5 µM		> 100 µM	29.4 µM	> 100 µM
COc1cccc(/C=N/[N-]C(N)=O)c1[O-].[Cu+2].[OH3+].c1cnc2c(c1)ccc1cccnc12		36 µM	75.5 µM	39.3 µM	33.3 µM		60.7 µM	51.2 µM	29.7 µM	16.1 µM	34.5 µM	34.2 µM
O=S1c2ccccc2N=C(c2ccc3ccccc3c2)CC1c1ccccc1 (configuration not stated)		> 100 µM	35.1 µM	62.1 µM		34.9 µM	37.2 µM	36.2 µM	> 100 µM	> 100 µM	> 100 µM	34.9 µM
CCOc1cc(NC(C)=O)ccc1C(=O)N/N=C/c1ccco1	> 100 µM	> 100 µM	> 100 µM	> 100 µM	> 100 µM	> 100 µM	> 100 µM	> 100 µM	> 100 µM	> 100 µM	> 100 µM	
CCOC(=O)C(C)OC(=O)c1ccc(C)cc1 (configuration not stated)			> 100 µM	> 100 µM	> 100 µM	> 100 µM	> 100 µM		> 100 µM	> 100 µM	> 100 µM	> 100 µM
CN(C)c1ccc(/C=C2\C[C@H]3[C@@H]4CCC5=CC(=O)CC[C@]5(C)[C@H]4CC[C@]3(C)C2=O)cc1	> 100 µM	> 100 µM	> 100 µM	> 100 µM	72.9 µM		> 100 µM	> 100 µM	> 100 µM	32.3 µM	67.3 µM	> 100 µM
COC(=O)c1c(O)ccc2c1c1c(n2Cc2ccccn2)C(=O)c2ccccc2C1	> 100 µM	> 100 µM	> 100 µM	> 100 µM	> 100 µM		> 100 µM	> 100 µM	> 100 µM	> 100 µM	> 100 µM	> 100 µM
O=C(COC(c1ccc(F)cc1)c1ccc(F)cc1)N1CCN(CCCc2ccccc2)CC1	14.5 µM	19.4 µM	11.2 µM	> 100 µM	17.4 µM	18.6 µM	16.4 µM	13 µM	> 100 µM	6.9 µM	11.3 µM	15.2 µM
CC(C)c1ccc2c(c1)[C@@]1(C)CC[C@H](C)C(C)(C)C1CC2 (some centres not stated)	59.4 µM	35.2 µM	31.3 µM	> 100 µM	37 µM	75.3 µM	36 µM	38.3 µM	31.6 µM	41.4 µM	36.7 µM	35.3 µM
